Results from ChEMBL document CHEMBL4257490, “Development of a peptide-based bifunctional chelator conjugated to a cytotoxic drug for the treatment of melanotic melanoma” (Medchemcomm, 2018).
Active and inactive are the calls of the source. The rule behind the calls is not given here. Residues, ends and D or L forms follow the SMILES beside them. *: point of attachment. X1 = O=c1nc(N*)ccn1[C@@H]1O[C@H](CO)[C@@H](O)C1(F)F

What was measured:
[1] = tested on: B16-F10; experiment: Ratio of drug uptake in mouse B16F10 cells at 20 ug/ml after 4 hrs by flow cytometric method to drug uptake in mouse B16F10 cells at 20 ug/ml after 30 mins by flow cytometric method; type: ADME, cell-based
[2] = Hemolytic activity in rat erythrocytes up to 50 uM after 1 hr relative to control; type: ADME, cell-based, Erythrocyte; conditions: read-out: Activity
[3] = Hemolytic activity in rat erythrocytes at 100 uM after 1 hr relative to control; type: ADME, cell-based, Erythrocyte; conditions: read-out: Activity
[4] = Metabolic stability in rat serum assessed as parent compound remaining using 99mTc(CO)3-labeled compound after 24 hrs by TLC method; type: ADME, cell-free; conditions: read-out: Stability
[5] = n-Octanol-phosphate buffer partition co-efficient, log P of 99mTc(CO)3-labeled compound at 2 to 3 KBq after 1 min by gamma scintillation counting method; type: physicochemical
[6] = Drug uptake in mouse B16F10 cells using 99mTc(CO)3-labeled compound at 15 to 20 MBq/ml after 240 mins by gamma scintillation counting method relative to total added activity; type: ADME, cell-based; conditions: b16-f10, 4 h
[7] = Drug uptake in mouse B16F10 cells using 99mTc(CO)3-labeled compound at 15 to 20 MBq/ml after 30 mins by gamma scintillation counting method; type: ADME, cell-based; conditions: b16-f10, 0.5 h
[8] = Drug uptake in heart of Balb/c mouse allografted with mouse B16F10 cells using 99mTc(CO)3-labeled compound at 10 to 12 MBq/kg, iv measured at 2 hrs; type: ADME, organism-based; conditions: in vivo
[9] = Drug uptake in liver of Balb/c mouse allografted with mouse B16F10 cells using 99mTc(CO)3-labeled compound at 10 to 12 MBq/kg, iv measured at 2 hrs; type: ADME, organism-based; conditions: in vivo
[10] = Drug uptake in spleen of Balb/c mouse allografted with mouse B16F10 cells using 99mTc(CO)3-labeled compound at 10 to 12 MBq/kg, iv measured at 2 hrs; type: ADME, organism-based; conditions: in vivo
[11] = Drug uptake in muscle of Balb/c mouse allografted with mouse B16F10 cells using 99mTc(CO)3-labeled compound at 10 to 12 MBq/kg, iv measured at 2 hrs; type: ADME, organism-based, Muscle tissue; conditions: in vivo
[12] = Drug uptake in tumor muscle of Balb/c mouse allografted with mouse B16F10 cells using 99mTc(CO)3-labeled compound at 10 to 12 MBq/kg, iv measured at 2 hrs; type: ADME, organism-based; conditions: in vivo
[13] = Drug uptake in kidney of Balb/c mouse allografted with mouse B16F10 cells using 99mTc(CO)3-labeled compound at 10 to 12 MBq/kg, iv measured at 2 hrs; type: ADME, organism-based; conditions: in vivo
[14] = Drug uptake in urine of Balb/c mouse allografted with mouse B16F10 cells using 99mTc(CO)3-labeled compound at 10 to 12 MBq/kg, iv measured at 2 hrs; type: ADME, organism-based; conditions: in vivo
[15] = Ratio of drug level in tumor to blood of Balb/c mouse allografted with mouse B16F10 cells using 99mTc(CO)3-labeled compound at 10 to 12 MBq/kg, iv measured at 2 hrs; type: ADME, organism-based, Tumor/tissue
[16] = Drug uptake in heart of Balb/c mouse allografted with mouse B16F10 cells using 99mTc(CO)3-labeled compound at 10 to 12 MBq/kg, iv measured at 4 hrs; type: ADME, organism-based; conditions: in vivo
[17] = Drug uptake in blood of Balb/c mouse allografted with mouse B16F10 cells using 99mTc(CO)3-labeled compound at 10 to 12 MBq/kg, iv measured at 4 hrs; type: ADME, organism-based; conditions: in vivo
[18] = Drug uptake in lung of Balb/c mouse allografted with mouse B16F10 cells using 99mTc(CO)3-labeled compound at 10 to 12 MBq/kg, iv measured at 4 hrs; type: ADME, organism-based; conditions: in vivo
[19] = Drug uptake in spleen of Balb/c mouse allografted with mouse B16F10 cells using 99mTc(CO)3-labeled compound at 10 to 12 MBq/kg, iv measured at 4 hrs; type: ADME, organism-based; conditions: in vivo
[20] = Drug uptake in muscle of Balb/c mouse allografted with mouse B16F10 cells using 99mTc(CO)3-labeled compound at 10 to 12 MBq/kg, iv measured at 4 hrs; type: ADME, organism-based, Muscle tissue; conditions: in vivo
[21] = Drug uptake in tumor muscle of Balb/c mouse allografted with mouse B16F10 cells using 99mTc(CO)3-labeled compound at 10 to 12 MBq/kg, iv measured at 4 hrs; type: ADME, organism-based; conditions: in vivo
[22] = Drug uptake in kidney of Balb/c mouse allografted with mouse B16F10 cells using 99mTc(CO)3-labeled compound at 10 to 12 MBq/kg, iv measured at 4 hrs; type: ADME, organism-based; conditions: in vivo
[23] = Drug uptake in urine of Balb/c mouse allografted with mouse B16F10 cells using 99mTc(CO)3-labeled compound at 10 to 12 MBq/kg, iv measured at 4 hrs; type: ADME, organism-based; conditions: in vivo
[24] = Ratio of drug level in tumor to blood of Balb/c mouse allografted with mouse B16F10 cells using 99mTc(CO)3-labeled compound at 10 to 12 MBq/kg, iv measured at 4 hrs; type: ADME, organism-based, Tumor/tissue
[25] = Ratio of drug level in tumor to muscle of Balb/c mouse allografted with mouse B16F10 cells using 99mTc(CO)3-labeled compound at 10 to 12 MBq/kg, iv measured at 4 hrs; type: ADME, organism-based, Tumor/tissue; conditions: in vivo
[26] = tested on: B16-F10; experiment: Cytotoxicity against mouse B16F10 cells assessed as decrease in cell viability after 72 hrs by MTT assay; type: functional, cell-based; conditions: B16-F10, 72 h
[27] = Drug uptake in kidney of Balb/c mouse allografted with mouse B16F10 cells using 99mTc(CO)3-labeled compound at 4 to 8 MBq, iv measured at 4 hrs by scintigraphic imaging method; type: ADME, organism-based; conditions: in vivo
[28] = Drug uptake in liver of Balb/c mouse allografted with mouse B16F10 cells using 99mTc(CO)3-labeled compound at 4 to 8 MBq, iv measured at 4 hrs by scintigraphic imaging method; type: ADME, organism-based; conditions: in vivo
[29] = Drug uptake in gastrointestinal tract of Balb/c mouse allografted with mouse B16F10 cells using 99mTc(CO)3-labeled compound at 4 to 8 MBq, iv measured at 4 hrs by scintigraphic imaging method; type: ADME, organism-based; conditions: in vivo
[30] = Drug uptake in urinary bladder of Balb/c mouse allografted with mouse B16F10 cells using 99mTc(CO)3-labeled compound at 4 to 8 MBq, iv measured at 4 hrs by scintigraphic imaging method; type: ADME, organism-based; conditions: in vivo
[31] = tested on: B16-F10; experiment: Induction of apoptosis in mouse B16F10 cells assessed as nuclear fragmentation at IC50 after 72 hrs by DAPI staining-based fluorescence microscopic method; type: functional, cell-based
[32] = tested on: Mus musculus; experiment: Toxicity in mouse B16F10 cells allografted Balb/c mouse assessed as effect on body weight at 25 mg/kg, iv administered thrice weekly for 21 days starting on day 10 post tumor implantation (reference value: 30.52 +/- 2.9 g); type: organism-based; conditions: in vivo, 504 h
[33] = tested on: B16-F10; experiment: Antitumor activity against mouse B16F10 cells allografted in Balb/c mouse assessed as decrease in tumor development at 25 mg/kg, iv administered thrice weekly for 21 days starting on day 10 post tumor implantation by haematoxylin and eosin staining-based method; type: functional, organism-based
[34] = tested on: B16-F10; experiment: Antitumor activity against mouse B16F10 cells allografted in Balb/c mouse assessed as decrease in formation of new blood vessels in tumor at 25 mg/kg, iv administered thrice weekly for 21 days starting on day 10 post tumor implantation by haematoxylin and eosin staining-based method; type: functional, organism-based

Ratio [1]: 4.4 | remaining at 24 h [4]: ≥ 92% | logP at 1 min [5]: -0.629 | Drug uptake [6]: 9.87% | Drug uptake [7]: 42.34% | Drug uptake [8]: 0.06 % ID/g | Drug uptake [9]: 17.65 % ID/g | Drug uptake [10]: 0.69 % ID/g | Drug uptake [11]: 0.17 % ID/g | Drug uptake [12]: 1.71 % ID/g | Drug uptake [13]: 18.96 % ID/g | Drug uptake [14]: 41.21 %ID/ml | Kp at 2 h [15]: 0.95 | Drug uptake [16]: 0.04 % ID/g | Drug uptake [17]: 1.58 %ID/ml | Drug uptake [18]: 0.25 % ID/g | Drug uptake [19]: 0.45 % ID/g | Drug uptake [20]: 0.15 % ID/g | Drug uptake [21]: 2.81 % ID/g | Drug uptake [22]: 16.25 % ID/g | Drug uptake [23]: 48.21 %ID/ml | Kp at 4 h [24]: 1.77 | Ratio [25]: 18.73 | Drug uptake [27]: Active | Drug uptake [28]: Active | Drug uptake [29]: Active | Drug uptake [30]: Active
Structure (SMILES): NCCCC[C@H](NC(=O)CNC(=O)[C@H](Cc1cnc[nH]1)NC(=O)[C@H](CCCCN)NC(=O)[C@H](Cc1ccc(O)cc1)NC(=O)[C@@H](N)Cc1cnc[nH]1)C(=O)N[C@@H](CC(=O)Nc1ccn([C@@H]2O[C@H](CO)[C@@H](O)C2(F)F)c(=O)n1)C(N)=O (H-HYKHGKD(X1)-NH2)
hemolysis at 1 h [2]: 5 to 6% | hemolysis at 1 h, 100 µM [3]: 7 to 9% | IC50 [26]: 0.12 µM | Activity [31]: Active | Activity [32]: 25.15 g | Activity [33]: Active | Activity [34]: Active
